Reference: patent US9067896B2, “Crystalline forms of 3-(2,6-dichloro-3,5-dimethoxy-phenyl)-1-{6-[4-(4-ethyl-piperazin-1-yl) -phenylamino]-pyrimidin-4-yl}-1-methyl-urea and salts thereof” (Novartis AG, priority 2009, dated 2015)
Counter-ions that a name gives are not always drawn. Like-named read-outs stand apart in the source and are kept apart here.

Key:
[1] = Hygroscopicity from DVS sorption/desorption isotherms; assay type: physicochemical
Experimental: Hygroscopicity was measured from sorption/desorption isotherms using Surface Measurement System DVS-1 at 25±0.5° C. Samples were evaluated at various humidities including 75%, 85%, and 95%.
The free base (anhydrous and monohydrate) and its phosphate salt (form A) were subjected to sorption and desorption cycle using a VTI brand instrument. The solids were collected after the experiment and analyzed. […] The DVS plots are shown in FIGS. 4A (free base, anhydrous), 4B (phosphate salt (form A) and 4C (free base, monohydrate). The maximum water uptake for the phosphate salt (form A) was less than 2% (i.e. 0.7%) at 25° C. up to 95% relative humidity (rh) (see Table 9). The maximum water uptake for the monohydrate was less than 1.4% at 25° C. up to 95% RH. The monohydrate with an approximate water content of 3% could not be completely dried during the experiment but the water that could be removed was reversibly reabsorbed. The plateau of existence of the monohydrate form is found to be within 10% and 95% RH with a slight hysteresis at the second desorption cycle.

[2] = Polymorphic stability by XRPD (equilibration, crystallization, evaporation, precipitation, compression, granulation); assay type: physicochemical; design: key to XRPD Result, crystallization by evaporation: —: no change detected; conditions: for XRPD Result, crystallization by evaporation: unstirred; for XRPD after crystallization from hot saturated solution: dissolved at 60° C., cooled in ice bath
Experimental: Slurries of samples were stirred at high speed for 24 hours at 25±0.5° C., filtered, and the solid collected analyzed by XRPD.
About 20 mg of the phosphate salt (form A) was equilibrated with 2 ml of a variety of solvents for at least 24 h at room temperature. Then the solution was filtered and the residue dried overnight at 50° C. under house vacuum. The solid obtained was investigated by XRPD. […]
About 20 mg of the phosphate salt (form A) was also equilibrated at about 50° C. with 2 ml solvent for at least 24 h. Then the solution was filtered and the residue dried overnight at 50° C. under house vacuum. The solid obtained was investigated by XRPD.
About 20 mg of the phosphate salt (form A) was dissolved in 2 ml solvent at 60° C. The solution was filtered. The clear filtrate obtained was cooled in an ice bath and agitated. The precipitate was collected on a filter, dried and investigated by XRPD.
About 20 mg of the phosphate salt (form A) was mixed with 2 ml solvent at 25° C. After stirring overnight, the solution was filtered. The filtrate was placed under nitrogen flow to evaporate the solvent. The residual solid was collected and investigated. The above evaporation was performed without stirring. Upon evaporation from THF/water (1:1) without stirring, a solid with XRPD pattern similar to that of the B form (see FIG. 1C), was obtained once. Subsequently, under these conditions, amorphous material, rather than form B, was obtained.
The same experiments (as described above for the 25° C. evaporation) were performed at 50° C.
Two different solvent combinations were tested. The phosphate salt (form A) was dissolved in DMSO where its solubility was high. A solvent (the anti-solvent) in which the form A was highly insoluble was added to the solution. The precipitate was collected on a filter, dried, and investigated by XRPD.
The phosphate salt (form A, 300 mg) was compressed for 5 minutes at 4000 pounds with a hydraulic press (diameter of the tablets 8 mm).
A solvent (water or ethanol) was added drop wise to the phosphate salt (form A) placed in a mortar until the solid in the mortar was sufficiently wet, and ground using a pestle until a paste-like consistency was obtained. The paste was dried at around 40° C. and under reduced pressure for >8 hours.

[3] = Pharmacokinetics / bioavailability in rats; assay type: in vivo; conditions: for concentration at 8 h: read-out: Clast [μmol/L ± SE]; for Cmax: read-out: Cmax [μmol/L ± SE]
Experimental: The higher water solubility of the phosphate salt compared to the free base (and other acid salts, as described above) led to the development of a solution formulation (or composition), which would not be feasible with the free base due to solubility restrictions. For this experiment, the phosphate salt was prepared as follows. In a glass vial, 10.7 mg of the free base was dissolved in 4 ml THF. Phosphoric acid (1.76 ml) in acetone (0.01M) was added. The mixture was warmed to 50° C. for about 2 minutes. The vial was left open for partial evaporation at room temperature. Overnight, a suspension was formed, which was filtered yielding about 5.5 mg of an off-white powder. The bioavailabilities, in rats, of the active agents (the free base and its phosphate salt), formulated variously, are tabulated below (Table 10).

[4] = Solid state stability; assay type: physicochemical; conditions: one week at 80° C., sealed containers and 75% relative humidity, alone and with excipients as 1% mixture
Experimental: In the solid state, the samples were stressed for one week at 80° C., in sealed containers and under 75% relative humidity. […] The amount of degradation products of the anhydrous free base as assessed by HPLC was 1% or less (based on peak area), while the degradation of the phosphate salt accounted for 1.4% or less.

[5] = Relative humidity 5%, after the 95% step
[6] = Relative humidity 5%, before the 95% step
[7] = Relative humidity 25%, after the 95% step
[8] = Relative humidity 25%, before the 95% step
[9] = Relative humidity 50%, after the 95% step
[10] = Relative humidity 50%, before the 95% step
[11] = Relative humidity 75%, after the 95% step
[12] = Relative humidity 75%, before the 95% step
[13] = Relative humidity 85%, after the 95% step
[14] = Relative humidity 85%, before the 95% step
[15] = rat, in vivo, po, 8.57 mg/kg, rats, phosphate salt p.o., supension (water containing 0.5% HPMC) [8.57 mg/kg]
[16] = rat, in vivo, po, 10 mg/kg, pH 4.7, rats, p.o., solution (PEG300/acetate buffer pH 4.7 1:1) [10 mg/kg]
[17] = rats, p.o., solution (PEG300/acetate buffer pH 4.7 1:1) [10 mg/kg]
[18] = rats, phosphate salt p.o., supension (water containing 0.5% HPMC) [8.57 mg/kg]

Structure (SMILES): CCN1CCN(c2ccc(Nc3cc(N(C)C(=O)Nc4c(Cl)c(OC)cc(OC)c4Cl)ncn3)cc2)CC1 [Phosphate salt (form A)]
- weight gain due to water absorption (DVS) ([1]; 75% RH, listed as phosphate salt): < 1%
- weight gain due to water absorption (DVS) ([1]; 85% RH): < 1%
- weight gain due to water absorption (DVS) ([1]; 95% RH, listed as phosphate salt): < 2%
- Adsorption Weight Gain (%) ([1]; Relative humidity 0%): 0.000%
- Desorption Weight Gain (%) ([1]; Relative humidity 0%): 0.000%
- Adsorption Weight Gain (%) [1, 5]: 0.000%
- Desorption Weight Gain (%) [1, 5]: 0.048%
- Adsorption Weight Gain (%) [1, 6]: 0.016%
- Desorption Weight Gain (%) [1, 6]: 0.091%
- Adsorption Weight Gain (%) [1, 7]: 0.177%
- Desorption Weight Gain (%) [1, 7]: 0.447%
- Adsorption Weight Gain (%) [1, 8]: 0.165%
- Desorption Weight Gain (%) [1, 8]: 0.507%
- Adsorption Weight Gain (%) [1, 9]: 0.334%
- Desorption Weight Gain (%) [1, 9]: 0.705%
- Adsorption Weight Gain (%) [1, 10]: 0.309%
- Desorption Weight Gain (%) [1, 10]: 0.738%
- Adsorption Weight Gain (%) [1, 11]: 0.467%
- Desorption Weight Gain (%) [1, 11]: 1.275%
- Adsorption Weight Gain (%) [1, 12]: 0.437%
- Desorption Weight Gain (%) [1, 12]: 1.022%
- Adsorption Weight Gain (%) [1, 13]: 0.520%
- Desorption Weight Gain (%) [1, 13]: 1.421%
- Adsorption Weight Gain (%) [1, 14]: 0.495%
- Desorption Weight Gain (%) [1, 14]: 1.245%
- Adsorption Weight Gain (%) ([1]; Relative humidity 95%): 0.653%
- Desorption Weight Gain (%) ([1]; Relative humidity 95%): 1.547%
- hygroscopicity (in words) ([1]; listed as phosphate salt): slightly hygroscopic
- XRPD after compression ([2]; 300 mg, 5 minutes at 4000 pounds, hydraulic press): No change of crystalline modification
- XRPD after crystallization by evaporation ([2]; 25° C., solution stirred during evaporation): form A was consistently obtained
- XRPD after crystallization by evaporation ([2]; 25° C., without stirring, 1:1 solutions of water with ethanol, 2-propanol, acetone, tetrahydrofuran): amorphous material was obtained
- XRPD after crystallization by evaporation ([2]; 50° C., solution stirred): Form A was also obtained
- XRPD Result, crystallization by evaporation ([2]; 50° C., 2-propanol/water 1:1): —
- XRPD Result, crystallization by evaporation ([2]; 50° C., Acetone/water 1:1): —
- XRPD Result, crystallization by evaporation ([2]; 50° C., Acetonitrile/water 1:1): Amorphous
- XRPD Result, crystallization by evaporation ([2]; 50° C., Ethanol/water 1:1): Amorphous
- XRPD Result, crystallization by evaporation ([2]; 50° C., Methanol/water 1:1): —
- XRPD Result, crystallization by evaporation ([2]; 50° C., Tetrahydrofuran/water 1:1): —
- XRPD after equilibration with solvents ([2]; at least 24 h at about 50° C., solvents of Table 7): No new XRPD pattern was observed
- XRPD after equilibration with solvents ([2]; at least 24 h at room temperature, solvents of Table 6): No new XRPD pattern was observed
- XRPD after crystallization from hot saturated solution ([2]; 1:1 solutions of water with methanol, ethanol, 2-propanol, acetone, tetrahydrofuran): No change in polymorphic form
- XRPD after crystallization from hot saturated solution ([2]; DMSO): form change noted
- XRPD after precipitation by addition of anti-solvent ([2]; dissolved in DMSO, anti-solvents methanol, ethanol, isopropanol, acetone, acetonitrile, THF, ethyl acetate, propyl acetate, toluene, methyl t-butyl ether, 1,4-dioxane, methylene chloride): No change in Form
- XRPD after granulation ([2]; wetted with water or ethanol, ground, dried at around 40° C.): no changes in the XRPD spectra
- bioavailability relative to the free base ([3]; oral administration): ~2 fold
- AUC(0-inf) [3, 15]: 1.23 µM·h
- Tmax [3, 15]: 3 h
- concentration at 8 h [3, 15]: 0.062 ± 0.006 µmol/L
- Cmax [3, 15]: 0.15 ± 0.031 µmol/L
- half-life ([3]; rat, in vivo, po, 8.57 mg/kg, rats, phosphate salt p.o., supension (water containing 0.5% HPMC) [8.57 mg/kg], read-out: t1/2 terminal elimination (converted)): 264 min
- AUC(0-inf) [3, 16]: 2.52 µM·h
- Tmax [3, 16]: 4 h
- concentration at 8 h [3, 16]: 0.148 ± 0.018 µmol/L
- Cmax [3, 16]: 0.263 ± 0.083 µmol/L
- AUC (0-∞) dose ^A [(h · μmol/L)/(mg/kg)] [3, 17]: 0.25 (h · μmol/L)/(mg/kg)
- BAV f [%] [3, 17]: 51%
- t1/2 terminal elimination [3, 17]: 4.8 h
- tlast [3, 17]: 8 h
- AUC (0-∞) dose ^A [(h · μmol/L)/(mg/kg)] [3, 18]: 0.14 (h · μmol/L)/(mg/kg)
- BAV f [%] [3, 18]: 29 ± 3%
- tlast [3, 18]: 8 h
- amount of degradation products by HPLC (peak area) [4]: ≤ 1.4%
